Experimental findings from US8703947B2, “Compounds for treatment of Alzheimer's disease” (Purdue Research Foundation, priority 2008, dated 2014) are described below.

One assay deals with memapsin 2 (Homo sapiens (Human), UniProt P56817). Description: Inhibition of memapsin 2 catalytic activity toward fluorogenic substrate FS-2. It counts as biochemical. Conditions: memapsin 2, pH 4, 37° C., 20 minutes pre-incubation, tight-binding model. As for the experimental part: Inhibition of Memapsin 1, Memapsin 2, and Cathepsin D Catalytic Activity. A substrate peptide H3N-ELDLAVEFWHDR—CO2 (SEQ ID NO:1) (used for inhibition assay of memapsin 2, memapsin 1, and cathepsin D) was dissolved at 2 mg/mL in DMSO and diluted 1:100 in 0.1 M sodium acetate, pH 4.0 just prior to assay. Inhibitor dissolved in DMSO was diluted into 0.1 M sodium acetate, pH 4.0 (1:100 dilution). A 50 μL aliquot of the inhibitor solution in pH 4 buffer was combined with 150 μL of 0.1 M sodium acetate containing 100-200 nM of memapsin 1, memapsin 2, or cathepsin D. Following a pre-incubation at 37° C., the proteolytic assay was initated by addition of 50 μl of the substrate diluted into pH 4 buffer, and incubation continued at 37° C. Aliquots were removed at time intervals, and combined with an equal volume of MALDI-TOF matrix ([…] in acetone, 20 mg/mL) and immediately spotted in duplicate onto a stainless-steel MALDI sample plate. MALDI-TOF mass spectrometry was performed on a PE Biosystems Voyager DE instrument at the Molecular Biology Resource Center on campus. The instrument was operated at 25,000 accelerating volts in positive mode with a 150 ns delay. Ions with a mass-to-charge ratio (m/z) were detected in the range of 650-2000 atomic mass units. Data were analyzed by the Voyager Data Explorer module to obtain ion intensity data for mass species of substrates and corresponding products in a given mixture. Relative product formation was calculated as the ratio of signal intensity of the product to the sum of signal intensities of both product and the corresponding substrate. Relative product formed per unit time was obtained from non-linear regression analysis of the data representing the initial 15% formation of product using the model: 1−e^−kT where k was the relative hydrolytic rate constant and T was time in seconds. Alternatively, relative hydrolytic rates were determined using a fluorogenic cleavage assay (Ermolieff, J. et al., Biochemistry, 39: 12450-12456 (2000)). Initial rates from either method were expressed relative to uninhibited controls and the inhibition constant Ki was determined by a non-linear fit to a tight-binding model of competitive inhibition (Bieth, J., Bayer—Symposium V. Proteinase Inhibitors, pp 463-469, Spinger-Varlag, Berlin (1994)). Results are shown in
Chain of memapsin 2 (P56817 46-501): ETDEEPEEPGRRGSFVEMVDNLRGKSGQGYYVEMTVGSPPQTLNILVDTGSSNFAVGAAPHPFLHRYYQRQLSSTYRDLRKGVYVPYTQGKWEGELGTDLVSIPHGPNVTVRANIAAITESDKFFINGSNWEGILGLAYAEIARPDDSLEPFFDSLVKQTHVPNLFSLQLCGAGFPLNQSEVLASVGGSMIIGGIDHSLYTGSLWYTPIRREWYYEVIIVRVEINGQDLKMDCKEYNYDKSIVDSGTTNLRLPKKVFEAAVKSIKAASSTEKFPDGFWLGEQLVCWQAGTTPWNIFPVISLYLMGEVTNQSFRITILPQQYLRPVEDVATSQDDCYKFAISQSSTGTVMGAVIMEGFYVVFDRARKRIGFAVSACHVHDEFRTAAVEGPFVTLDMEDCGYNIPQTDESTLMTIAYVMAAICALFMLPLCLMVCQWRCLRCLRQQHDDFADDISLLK
Inhibition of Memapsin 2. The potencies of compounds were determined by measurement of their inhibition of memapsin 2 catalytic activity toward a fluorescent substrate. Kinetic inhibition experiments were performed using the procedure as described in Ermolieff, et al. Biochemistry 39:12450-12456 (2000), the teachings of which are incorporated hereby in their entirety. Briefly, assays were performed at pH 4, 37° C., by pre-incubation of memapsin 2 enzyme with compound for 20 minutes. Activity measure was initiated by addition of a fluorogenic substrate FS-2 (Bachem Americas, Torrance, Calif.). Fluorescent signal increase over time was measured as a rate of hydrolysis of the peptide substrate. Inhibition of hydrolytic rate was expressed relative to uninhibited controls and fit to a model for tight-binding inhibitors (J. Bieth, in “Proteinase Inhibitors,” Bayer Symposium V, 463-469, 1974).
Turning to `Cc1nc(CN(C)C(=O)c2cccc(C(=O)N[C@@H](Cc3ccccc3)[C@H](O)C3NCCN(Cc4ccccc4)C3=O)c2)cs1` (single isomer, unassigned) [Example 11a], the inhibitory constant (Ki) – broadly, a dissociation constant, usually derived from enzyme kinetics or from competition with a known ligand – is less than 1000 nM.

Take `Cc1nc(CN(C)C(=O)c2cccc(C(=O)N[C@@H](Cc3ccccc3)[C@H](O)C3NCCN(Cc4ccccc4)C3=O)c2)cs1` (single isomer, unassigned) [Example 11b]: the inhibition constant (Ki) is more than 10000 nM.

Take `COc1cccc(C[C@@H]2CC[C@H]([C@@H](O)CNC(=O)c3cc(C(=O)N[C@H](C)c4ccccc4)cc(N(C)S(C)(=O)=O)c3)N2C(=O)OC(C)(C)C)c1` [Comparison compound A, reference compound]: the Ki was more than 1000 nM.

Compound `COc1cccc(C[C@@H]2CC[C@H]([C@@H](O)CNC(=O)c3cc(C(=O)N[C@H](C)c4ccccc4)cc(N(C)S(C)(=O)=O)c3)N2)c1` [Comparison compound B, reference compound] had an inhibition constant Ki of more than 10000 nM.

The compound `C[C@@H](NC(=O)c1cc(C(=O)N[C@@H](Cc2ccccc2)[C@H](O)C2NCCN(Cc3ccccc3)C2=O)cc(N(C)S(C)(=O)=O)c1)c1ccccc1` (some centres unmarked) [Example 10] displayed a Ki of less than 10000 nM.

Turning to `C[C@@H](NC(=O)c1cc(C(=O)N[C@@H](Cc2ccccc2)[C@H](O)C2Cc3ccccc3CN2)cc(N(C)S(C)(=O)=O)c1)c1ccccc1` (some centres unmarked) [GRL-0196-AL], the Ki was more than 10000 nM.

In turn, `Cc1csc([C@H]2CCCN2C(=O)c2cccc(C(=O)N[C@@H](Cc3ccccc3)[C@H](O)[C@@H]3NCCN(Cc4ccccc4)C3=O)c2)n1` [GRL-0299] showed a Ki of less than 1000 nM.

In turn, `Cc1csc([C@H]2CCCN2C(=O)c2cccc(C(=O)N[C@@H](Cc3ccccc3)[C@H](O)[C@@H]3NCCN(CC(C)C)C3=O)c2)n1` [GRL-0669AL] registered a Ki of less than 1000 nM.

The compound `COc1ccc(CN2CCN[C@@H]([C@@H](O)[C@H](Cc3ccccc3)NC(=O)c3cccc(C(=O)N4CCC[C@@H]4c4nc(C)cs4)c3)C2=O)cc1` [GRL-0819AL] came in with a Ki of less than 1000 nM.

`CC(C)CN1CCN[C@@H]([C@@H](O)[C@H](Cc2ccccc2)NC(=O)c2cc(C(=O)N[C@H](C)c3ccccc3)cc(N(C)S(C)(=O)=O)c2)C1=O` [GRL-0849AL] came in with an inhibition constant Ki of less than 1000 nM.

In the case of `COc1ccc(CN2CCN[C@@H]([C@@H](O)[C@H](Cc3ccccc3)NC(=O)c3cc(C(=O)N[C@H](C)c4ccccc4)cc(N(C)S(C)(=O)=O)c3)C2=O)cc1` [GRL-0889AL], the Ki is less than 1000 nM.

For `COc1cccc(CN2CCN[C@@H]([C@@H](O)[C@H](Cc3ccccc3)NC(=O)c3cccc(C(=O)N4CCC[C@@H]4c4nc(C)cs4)c3)C2=O)c1` [GRL-1069AL], the inhibition constant Ki is less than 1000 nM.

The compound `COc1cccc(CN2CCN[C@@H]([C@@H](O)[C@H](Cc3ccccc3)NC(=O)c3cc(C(=O)N[C@H](C)c4ccccc4)cc(N(C)S(C)(=O)=O)c3)C2=O)c1` [GRL-1079AL] returned a Ki of less than 1000 nM.

The subject of the next assay is Aβ production in Chinese hamster ovary cells that over-express human APP695 with the London and Swedish mutations. Description: Cellular Aβ IC50 determination (Aβ40 sandwich ELISA). The conditions noted are these: Cricetulus griseus; Aβ40 content after 24 h incubation, CHO cells over-expressing human APP695. It counts as cell-based. As for the experimental part: Cellular Aβ IC50 Determinations. The potency of compounds against memapsin 2 catalytic activity was determined in a cellular assay of Aβ production. […] Chinese hamster ovary cells that over-express human APP695 with the London and Swedish mutations were seeded in multi-well plates at 10% confluency. Compounds are dissolved in DMSO to concentrations near 1 mM, and diluted into culture media to a final concentration near 4 μM (final 0.4% DMSO). Compounds were diluted serially and applied to cells in multi-well plates 48 h after seeding. Incubation was continued in 5% CO2 at 37 degrees C. for 24 h. Aliquots were removed and assayed for Aβ40 content using a sandwich ELISA (BioSource International). Amount of Aβ40 over the range of concentration of compounds, relative to control incubations, were fit to a 4-parameter IC50 model.
In general terms: In an ELISA, binding on a coated surface is turned into a signal by an enzyme label.
`Cc1nc(CN(C)C(=O)c2cccc(C(=O)N[C@@H](Cc3ccccc3)[C@H](O)C3NCCN(Cc4ccccc4)C3=O)c2)cs1` (single isomer, unassigned) [Example 11a]: the IC50 (usually the concentration at which inhibition is half-maximal) is less than 10000 nM.
